Laboratory results reported in patent US4705777A, “Cationic oligopeptides having microbicidal activity” (priority 1985, dated 1987).

Key:
[1] = test system: Staphylococcus aureus 502A; assay: Bactericidal activity of human neutrophil peptides, S. aureus; format: cell-based; settings: comparison to Table VI
E. coli ML-35 = assay: Bactericidal activity of human neutrophil peptides, E. coli ML-35; format: cell-based; settings: comparison to Table VI
[2] = test system: Cryptococcus neoformans C-384 (Type C); assay: Antifungal assay of human neutrophil peptides; format: cell-based; settings: comparison to Table VI
S. albus = assay: Antibacterial action, % killing (Table II), S. albus; format: cell-based, Staphylococcus albus; settings: 50 μg/ml peptide, 10^7 bacterial cells/ml, 20 min, 37°
Description: (§1) To test antibacterial action of the polypeptides, the following protocol was employed. Various species at 10^7 bacterial cells/ml are incubated for 20 min at 37° with 50 μg/ml of the candidate peptide. Colony counts (viable organisms) are made at the outset of the incubation--beforeaddition of the candidate peptide--and after 20 min of incubation with the candidate peptide.

S. aureus 502A = assay: Antibacterial action, % killing (Table II), S. aureus 502A; format: cell-based, Staphylococcus aureus; settings: 50 μg/ml peptide, 10^7 bacterial cells/ml, 20 min, 37°
Description: as §1

L. monocytogenes = assay: Antibacterial action, % killing (Table II), L. monocytogenes; format: cell-based, Listeria monocytogenes; settings: 50 μg/ml peptide, 10^7 bacterial cells/ml, 20 min, 37°
Description: as §1

E. coli = assay: Antibacterial action, % killing (Table II), E. coli; format: cell-based, Escherichia coli; settings: 50 μg/ml peptide, 10^7 bacterial cells/ml, 20 min, 37°
Description: as §1

Ps. aeruginosa = assay: Antibacterial action, % killing (Table II), Ps. aeruginosa; format: cell-based, Pseudomonas aeruginosa; settings: 50 μg/ml peptide, 10^7 bacterial cells/ml, 20 min, 37°
Description: as §1

H. influenzae = assay: Antibacterial action, % killing (Table II), H. influenzae; format: cell-based, Haemophilus influenzae; settings: 50 μg/ml peptide, 10^7 bacterial cells/ml, 20 min, 37°
Description: as §1

K. pneumoniae = assay: Antibacterial action, % killing (Table II), K. pneumoniae; format: cell-based, Klebsiella pneumoniae; settings: 50 μg/ml peptide, 10^7 bacterial cells/ml, 20 min, 37°
Description: as §1

S. marscescens = assay: Antibacterial action, % killing (Table II), S. marscescens; format: cell-based, Serratia marscescens; settings: 50 μg/ml peptide, 10^7 bacterial cells/ml, 20 min, 37°
Description: as §1

[3] = test system: Staphylococcus aureus 566; assay: Antibacterial activity of rabbit granulocyte peptides (Table III), S. aureus 566; format: cell-based; settings: 50 μg/ml, 20 min, 37° C., 10 mM sodium phosphate buffer pH 7.4
Description: (§2) The procedure parallels that reported in Lehrer et al., Infection and Immunity (1983) 42:10-14. […] The subculture was grown at 37° C. for 4 h with shaking to provide mid-logarithmic phase organisms that were washed twice with buffer by centrifugation (2000×g, 10 min), and then quantitated spectrophotometrically at 620 nm, with reference to previously established CFU/Optical Density relationships. Bacteria were suspended and experiments were performed in 10 mM sodium phosphate buffer, pH 7.4. In some experiments, buffers were supplemented with 0.14 M NaCl ("high" ionic strength). […] In some experiments, 10 mM phosphate buffer with a pH of 5.8 and conductivity of 1.36 mMHO was used. Peptide "stock solutions" were prepared at 500 μg/ml (microbiuret assay) in 0.01% acetic acid, and stored at -20° C. Typically, incubation mixtures contained 1×10^5 bacterial CFU and 5 μg of peptide in 100 μl of buffer. After incubation for 20 min at 37° C., 900 μl of the same buffer was added, and two additional serial tenfold dilutions were made with that buffer. Duplicate 100 μl aliquots from the three serial dilutions were spread over appropriate nutrient agar plates and incubated for 24-72 h to insure full colony development. Killing of microorganisms was expressed as the logarithm10 No /N, where No represented the initial colony count and N represented the colony count after incubation with peptide. There was no significant alteration in colony count when any of the test organisms were exposed to peptide-free buffer for 20 min.

[4] = test system: Staphylococcus aureus 502A; assay: Antibacterial activity of rabbit granulocyte peptides (Table III), S. aureus 502A; format: cell-based; settings: 50 μg/ml, 20 min, 37° C., 10 mM sodium phosphate buffer pH 7.4
Description: as §2

[5] = test system: Staphylococcus aureus J.F.; assay: Antibacterial activity of rabbit granulocyte peptides (Table III), S. aureus J.F.; format: cell-based; settings: 50 μg/ml, 20 min, 37° C., 10 mM sodium phosphate buffer pH 7.4
Description: as §2

[6] = test system: Staphylococcus epidermidis UCLA-622; assay: Antibacterial activity of rabbit granulocyte peptides (Table III), S. epidermidis; format: cell-based; settings: 50 μg/ml, 20 min, 37° C., 10 mM sodium phosphate buffer pH 7.4
Description: as §2

[7] = test system: Streptococcus pneumoniae Type III; assay: Antibacterial activity of rabbit granulocyte peptides (Table III), S. pneumoniae; format: cell-based; settings: 50 μg/ml, 20 min, 37° C., 10 mM sodium phosphate buffer pH 7.4
Description: as §2

[8] = test system: Streptococcus agalactiae Type-I-A; assay: Antibacterial activity of rabbit granulocyte peptides (Table III), S. agalactiae Type-I-A; format: cell-based; settings: 50 μg/ml, 20 min; for Bactericidal activity log10 No /N, Streptococcus agalactiae Type 1A, pH 5.8: 10 mM phosphate buffer pH 5.8; for Bactericidal activity log10 No /N, Streptococcus agalactiae Type-I-A: 37° C., 10 mM sodium phosphate buffer pH 7.4; for Bactericidal activity log10 No /N, Streptococcus agalactiae Type 1A, "High" ionic strength: buffer pH 7.4 supplemented with 0.14 M NaCl
Description: as §2

[9] = test system: Streptococcus agalactiae Type IIIU; assay: Antibacterial activity of rabbit granulocyte peptides (Table III), S. agalactiae Type IIIU; format: cell-based; settings: 50 μg/ml, 20 min, 37° C., 10 mM sodium phosphate buffer pH 7.4
Description: as §2

[10] = test system: Listeria monocytogenes 450; assay: Antibacterial activity of rabbit granulocyte peptides (Table III), L. monocytogenes; format: cell-based; settings: 50 μg/ml, 20 min; for Bactericidal activity log10 No /N, Listeria monocytogenes 450, pH 5.8: 10 mM phosphate buffer pH 5.8; for Bactericidal activity log10 No /N, Listeria monocytogenes 450: 37° C., 10 mM sodium phosphate buffer pH 7.4; for Bactericidal activity log10 No /N, Listeria monocytogenes 450, "High" ionic strength: buffer pH 7.4 supplemented with 0.14 M NaCl
Description: as §2

[11] = test system: Pseudomonas aeruginosa PAO 579; assay: Antibacterial activity of rabbit granulocyte peptides (Table III), P. aeruginosa; format: cell-based; settings: 50 μg/ml, 20 min; for Bactericidal activity log10 No /N, Pseudomonas aeruginosa PAO 579, pH 5.8: 10 mM phosphate buffer pH 5.8; for Bactericidal activity log10 No /N, Pseudomonas aeruginosa PAO 579: 37° C., 10 mM sodium phosphate buffer pH 7.4; for Bactericidal activity log10 No /N, Pseudomonas aeruginosa PAO 579, "High" ionic strength: buffer pH 7.4 supplemented with 0.14 M NaCl
Description: as §2

[12] = test system: Escherichia coli ATCC 29648; assay: Antibacterial activity of rabbit granulocyte peptides (Table III), E. coli; format: cell-based; settings: 50 μg/ml, 20 min, 37° C., 10 mM sodium phosphate buffer pH 7.4
Description: as §2

[13] = test system: Klebsiella pneumoniae ATCC 13883; assay: Antibacterial activity of rabbit granulocyte peptides (Table III), K. pneumoniae; format: cell-based; settings: 50 μg/ml, 20 min; for Bactericidal activity log10 No /N, Klebsiella pneumoniae ATCC 13883, pH 5.8: 10 mM phosphate buffer pH 5.8; for Bactericidal activity log10 No /N, Klebsiella pneumoniae ATCC 13883: 37° C., 10 mM sodium phosphate buffer pH 7.4; for Bactericidal activity log10 No /N, Klebsiella pneumoniae ATCC 13883, "High" ionic strength: buffer pH 7.4 supplemented with 0.14 M NaCl
Description: as §2

Serratia marcescens = assay: Antibacterial activity of rabbit granulocyte peptides (Table III), S. marcescens; format: cell-based; settings: 50 μg/ml, 20 min, 37° C., 10 mM sodium phosphate buffer pH 7.4
Description: as §2

[14] = test system: Hemophilus influenzae Type 3A; assay: Antibacterial activity of rabbit granulocyte peptides (Table III), H. influenzae; format: cell-based; settings: 50 μg/ml, 20 min, 37° C., 10 mM sodium phosphate buffer pH 7.4
Description: as §2

[15] = test system: Bordetella bronchiseptica UCLA-342; assay: Antibacterial activity of rabbit granulocyte peptides (Table III), B. bronchiseptica; format: cell-based; settings: 50 μg/ml, 20 min, 37° C., 10 mM sodium phosphate buffer pH 7.4
Description: as §2

Streptococcus Group B = assay: Antibacterial action, % killing (Table II), Streptococcus Group B; format: cell-based; settings: 50 μg/ml peptide, 10^7 bacterial cells/ml, 20 min, 37°
Description: as §1

Substance	% Killing, S. albus (S. albus)	% Killing, S. aureus 502A (S. aureus 502A)	% Killing, L. monocytogenes (L. monocytogenes)	% Killing, E. coli (E. coli)	% Killing, Ps. aeruginosa (Ps. aeruginosa)	Bactericidal activity log10 No /N, Staphylococcus aureus 566 [3]	Bactericidal activity log10 No /N, Staphylococcus aureus 502A [4]	Bactericidal activity log10 No /N, Staphylococcus aureus J.F. [5]	Bactericidal activity log10 No /N, Staphylococcus epidermidis UCLA-622 [6]	Bactericidal activity log10 No /N, Streptococcus pneumoniae Type III [7]	Bactericidal activity log10 No /N, Streptococcus agalactiae Type 1A, pH 5.8 [8]	Bactericidal activity log10 No /N, Streptococcus agalactiae Type-I-A [8]	Bactericidal activity log10 No /N, Streptococcus agalactiae Type 1A, "High" ionic strength [8]	Bactericidal activity log10 No /N, Streptococcus agalactiae Type IIIU [9]	Bactericidal activity log10 No /N, Listeria monocytogenes 450, pH 5.8 [10]	Bactericidal activity log10 No /N, Listeria monocytogenes 450 [10]	Bactericidal activity log10 No /N, Listeria monocytogenes 450, "High" ionic strength [10]	Bactericidal activity log10 No /N, Pseudomonas aeruginosa PAO 579, pH 5.8 [11]	Bactericidal activity log10 No /N, Pseudomonas aeruginosa PAO 579 [11]	Bactericidal activity log10 No /N, Pseudomonas aeruginosa PAO 579, "High" ionic strength [11]	also measured
asp cys tyr cys arg ile pro ala cys ile ala gly glu arg arg tyr gly thr cys ile tyr gln gly arg leu trp ala phe cys cys [HNP-3]																					microbicidal activity compared with the other HNP, S. aureus 502A [1]: less microbicidal than the other oligopeptides; microbicidal activity compared with the other HNP, E. coli ML-35 (E. coli ML-35): less microbicidal than the other oligopeptides; microbicidal activity compared with the other HNP, C. neoformans C-384 [2]: less microbicidal than the other oligopeptides
gly ile cys ala cys arg arg arg phe cys pro asn ser glu arg phe ser gly tyr cys arg val asn gly ala arg tyr val arg cys cys ser arg arg [NP-3a]	D (<50% killing)	D (<50% killing)	D (<50% killing)	D (<50% killing)	A (>99% killing)	1.3 log10	0.0 log10	0.4 log10	1.3 log10	> 3.5 log10	0.0 log10	0.6 log10	0.0 log10	0.3 log10	0.0 log10	0.2 log10	0.1 log10	0.1 log10	3.2 log10	0.1 log10	% Killing, H. influenzae (H. influenzae): B (90-99% killing); % Killing, K. pneumoniae (K. pneumoniae): A (>99% killing); % Killing, S. marscescens (S. marscescens): C (50-90% killing); Bactericidal activity log10 No /N, Escherichia coli ATCC 29648 [12]: 0.6 log10; Bactericidal activity log10 No /N, Klebsiella pneumoniae ATCC 13883, pH 5.8 [13]: 0.4 log10; Bactericidal activity log10 No /N, Klebsiella pneumoniae ATCC 13883 [13]: 2.4 log10; Bactericidal activity log10 No /N, Klebsiella pneumoniae ATCC 13883, "High" ionic strength [13]: 0.0 log10; Bactericidal activity log10 No /N, Serratia marcescens (Serratia marcescens): 0.5 log10; Bactericidal activity log10 No /N, Hemophilus influenzae Type 3A [14]: > 1.1 log10; Bactericidal activity log10 No /N, Bordetella bronchiseptica UCLA-342 [15]: 0.1 log10
val val cys ala cys arg arg ala leu cys leu pro leu glu arg arg ala gly phe cys arg ile arg gly arg ile his pro leu cys cys arg arg [NP-2]	B (90-99% killing)	D (<50% killing)	A (>99% killing)	B (90-99% killing)	A (>99% killing)	> 4.1 log10	2.4 log10	2.9 log10	> 4.1 log10	> 3.5 log10	0.1 log10	2.0 log10	0.1 log10	2.9 log10	0.1 log10	2.1 log10	0.2 log10	0.2 log10	3.2 log10	0.0 log10	% Killing, Streptococcus Group B (Streptococcus Group B): C (50-90% killing); Bactericidal activity log10 No /N, Escherichia coli ATCC 29648 [12]: 0.8 log10; Bactericidal activity log10 No /N, Klebsiella pneumoniae ATCC 13883, pH 5.8 [13]: 0.5 log10; Bactericidal activity log10 No /N, Klebsiella pneumoniae ATCC 13883 [13]: 1.1 log10; Bactericidal activity log10 No /N, Klebsiella pneumoniae ATCC 13883, "High" ionic strength [13]: 0.0 log10; Bactericidal activity log10 No /N, Serratia marcescens (Serratia marcescens): 1.0 log10; Bactericidal activity log10 No /N, Hemophilus influenzae Type 3A [14]: 2.0 log10; Bactericidal activity log10 No /N, Bordetella bronchiseptica UCLA-342 [15]: 0.1 log10
